The record followed here is patent US20230373934A1, “ANDROGEN RECEPTOR MODULATORS AND METHODS FOR THEIR USE” (ESSA Pharma, Inc., priority 2022, published 2023).

For the experiment, the target named is T1, androgen receptor (AR) (Homo sapiens, UniProt P10275, T878A).
T1 construct: endogenous in cells; host or cells: LNCaP
T1 sequence (P10275 1-920 T878A): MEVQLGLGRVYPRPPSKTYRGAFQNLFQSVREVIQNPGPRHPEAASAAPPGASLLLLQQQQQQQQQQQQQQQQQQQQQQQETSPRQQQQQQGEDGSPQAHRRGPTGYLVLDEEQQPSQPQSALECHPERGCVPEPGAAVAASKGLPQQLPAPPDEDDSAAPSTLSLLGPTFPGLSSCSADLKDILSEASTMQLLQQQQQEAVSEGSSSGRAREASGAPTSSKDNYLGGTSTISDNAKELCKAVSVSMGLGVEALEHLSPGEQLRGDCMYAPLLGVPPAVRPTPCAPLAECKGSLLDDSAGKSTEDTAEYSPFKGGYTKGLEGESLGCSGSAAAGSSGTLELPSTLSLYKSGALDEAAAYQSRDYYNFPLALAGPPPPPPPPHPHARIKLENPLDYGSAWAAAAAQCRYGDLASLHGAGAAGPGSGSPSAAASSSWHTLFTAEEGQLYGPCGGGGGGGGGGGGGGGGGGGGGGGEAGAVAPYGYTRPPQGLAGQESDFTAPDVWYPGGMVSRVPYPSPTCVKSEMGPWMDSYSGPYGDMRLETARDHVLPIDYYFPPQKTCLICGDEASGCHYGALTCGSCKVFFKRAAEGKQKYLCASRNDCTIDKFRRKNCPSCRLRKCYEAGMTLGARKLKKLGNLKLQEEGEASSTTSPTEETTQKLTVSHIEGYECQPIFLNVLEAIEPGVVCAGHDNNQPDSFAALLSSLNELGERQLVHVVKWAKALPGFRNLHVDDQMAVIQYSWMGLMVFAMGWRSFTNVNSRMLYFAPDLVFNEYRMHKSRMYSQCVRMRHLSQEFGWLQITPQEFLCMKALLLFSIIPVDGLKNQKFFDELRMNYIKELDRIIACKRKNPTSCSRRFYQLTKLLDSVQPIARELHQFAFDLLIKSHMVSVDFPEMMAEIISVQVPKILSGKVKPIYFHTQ
Description: Androgen-induced PSA-luciferase assay, Luciferase Assay A (LNCaP transiently transfected with PSA (6.1 kb)-luciferase reporter). In kind it is cell-based. As to conditions: LNCaP cells, 1 h pretreatment, R1881 (1 nM) 24 h, read-out: PSA-Luc IC50 Range. Here is the method:
The PSA (6.1 kb)-luciferase reporter contains functional AREs (androgen response elements) to which AR binds in response to androgen to induce luciferase activity. LNCaP cells were transiently transfected with the PSA (6.1 kb)-luciferase reporter for 24 h, and then pretreated with vehicle (DMSO) or indicated concentration of representative compounds for one hour prior to the addition of synthetic androgen, R1881 (1 nM). After 24 h of incubation with R1881, the cells were harvested, and relative luciferase activities were determined (FIG. 1). To determine the IC50, treatments were normalized to vehicle control activity induced by R1881 (Table 2).
Luciferase Assay A: Cells were lysed using Passive Lysis Buffer (Promega) and then collected into V-bottom 96-well tissue culture plates. Lysates were centrifuged at 4° C. for 5 minutes at 3000 rpm. To measure luminescence of LNCaP cell lysates the Firefly Luciferase Assay System (Promega) was employed, according to manufacturer's protocol. Relative luminescence units (RLU) in cell lysates were detected for 10 seconds using Promega GloMax-Multi Detection Luminometer (Promega). Values were normalized to protein content. GraphPad Prism graphing software was used to calculate IC50 values. Luciferase Assay A was run for all compounds in Table 2 unless otherwise noted below.
Statistical analyses were performed using GraphPad Prism (Version 6.01 for Windows; La Jolla, CA, USA). Comparisons between treatment and control groups were compared using Two-Way ANOVA with post-hoc Dunnett's and Tukey's tests. Differences were considered statistically significant at P values less than 0.05.
For orientation: A reporter such as luciferase makes a cellular process visible.

Broadly, the IC50 is the concentration that gives 50% inhibition. On to `CS(=O)(=O)Nc1nccc(COc2ccc(Oc3cc(Cl)c(OCCCl)c(C#N)c3)cc2)n1` [Compound A122], for which the IC50 is > 2000 nM.
In the case of `CS(=O)(=O)Nc1cnc2cc(-c3ncc(Oc4cc(Cl)c(OCCCl)c(C#N)c4)cn3)ccc2n1` [Compound A123], the IC50 is > 2000 nM.
Under `CC(C)(c1ccc(-c2cnc3cc(NS(C)(=O)=O)ccc3n2)cc1)c1cc(Cl)c(OCCCl)c(C#N)c1` [Compound A124] stands 500 to 2000 nM.
The figure for `CC(C)(c1ccc(OCc2ccc(F)c(NS(C)(=O)=O)n2)cc1)c1cc(Cl)c(OCCCl)c(C#N)c1` [Compound A125] is 500 to 2000 nM.
For the molecule `CC(C)(c1ccc(OCc2ccnc(NS(C)(=O)=O)n2)cc1)c1cc(Cl)c(N2CC3CC(C2)O3)c(C#N)c1` [Compound A126], the IC50 is > 2000 nM.
The figure for `CS(=O)(=O)Nc1nccc(COc2ccc(C(=O)c3cc(Cl)c(OCCCl)c(C#N)c3)cc2)n1` [Compound A128] is > 2000 nM; for `CC(C)(c1ccc(OCc2ccnc(NS(C)(=O)=O)n2)cc1)c1cc(Cl)c(CCO)c(C#N)c1` [Compound A129] it is > 2000 nM.
Under `CC(C)(c1ccc(OCc2cccc(NS(C)(=O)=O)c2F)cc1)c1cc(Cl)c(OCCCl)c(C#N)c1` [Compound A130] stands 500 to 2000 nM; under `CC(C)(c1ccc(OCc2ccc(F)c(NS(C)(=O)=O)c2)cc1)c1cc(Cl)c(OCCCl)c(C#N)c1` [Compound A131], 500 to 2000 nM; under `CC(C)(c1ccc(OCc2ccnc(NS(C)(=O)=O)n2)cc1)c1cc(Cl)c(N2CCC(F)(F)CC2)c(C#N)c1` [Compound A132], > 2000 nM.
Regarding `CC(C)(c1ccc(OCc2ccnc(NS(C)(=O)=O)n2)cc1)c1cc(Cl)c(N2CCC3(CC2)CC3)c(C#N)c1` [Compound A133], the IC50 was > 2000 nM.
Under `CC(C)(c1ccc(OCc2ccnc(NS(C)(=O)=O)n2)cc1)c1cc(Cl)c(N2CCN(CC(F)(F)F)CC2)c(C#N)c1` [Compound A134] stands 500 to 2000 nM.
Under `CN(c1nccc(Oc2ccc(C(C)(C)c3cc(Cl)c(OCCCl)c(C#N)c3)cc2)n1)S(C)(=O)=O` [Compound A135] stands 500 to 2000 nM; under `CC(C)(c1ccc(OCc2ccnc(NS(C)(=O)=O)n2)cc1)c1cc(Cl)c(CCCl)c(C#N)c1` [Compound A136], 500 to 2000 nM.
Under `CS(=O)(=O)N1CC2(CC(Oc3ccc(Oc4cc(Cl)c(OCCCl)c(C#N)c4)cc3)C2)C1` [Compound A137] stands 500 to 2000 nM.
Turning to `CC(C)(c1ccc(-c2cnc(N3CCC34CN(S(C)(=O)=O)C4)nc2)cc1)c1cc(Cl)c(OCCCl)c(C#N)c1` [Compound A138], the concentration for half-maximal inhibition (IC50) is 500 to 2000 nM.
Under `CC(C)(c1ccc(OCc2ccnc(NS(C)(=O)=O)n2)cc1)c1cc(Cl)c(OCCCOC(=O)Nc2ccccc2)c(C#N)c1` [Compound A139] stands 500 to 2000 nM; under `CC(C)(c1ccc(OC2CC3(C2)CN(S(C)(=O)=O)C3)cc1)c1cc(Cl)c(N2CCOCC2)c(C#N)c1` [Compound A140], 500 to 2000 nM.
The figure for `CC(C)(c1ccc(OC2CC3(C2)CN(S(C)(=O)=O)C3)cc1)c1cc(Cl)c(OC2CC2)c(C#N)c1` [Compound A141] is 500 to 2000 nM.
Under `CC(C)(c1ccc(OCC23CC(NS(C)(=O)=O)(C2)C3)cc1)c1cc(Cl)c(N2CCOCC2)c(C#N)c1` [Compound A142] stands 500 to 2000 nM.
With `CC(C)(c1ccc(OCC23CC(NS(C)(=O)=O)(C2)C3)cc1)c1cc(Cl)c(OC2CC2)c(C#N)c1` [Compound A143], the IC50 was in the range of 500 to 2000 nM.
`CC(C)(c1ccc(OCc2ccnc(NS(C)(=O)=O)n2)cc1)c1cc(Cl)c(OCC2CCC2)c(C#N)c1` [Compound A146]: the IC50 lay in the range of 500 to 2000 nM.
The figure for `CC(C)(c1ccc(OCc2ccnc(NS(C)(=O)=O)n2)cc1)c1cc(Cl)c(OCC2CC2)c(C#N)c1` [Compound A147] is 500 to 2000 nM.
The figure for `CC(C)(c1ccc(OCc2ccnc(NS(C)(=O)=O)n2)cc1)c1cc(Cl)c(N2CCOC3(CC3)C2)c(C#N)c1` [Compound A148] is 500 to 2000 nM.
The figure for `CC(C)(c1ccc(OCc2ccnc(NS(C)(=O)=O)n2)cc1)c1cc(Cl)c(N2CC3CC2CO3)c(C#N)c1` (centres unmarked) [Compound A149] is 500 to 2000 nM; for `CC(C)(c1ccc(OC2CC3(CC(NS(C)(=O)=O)C3)C2)cc1)c1cc(Cl)c(OCCCl)c(C#N)c1` (centres unmarked) [Compound A150] it is 500 to 2000 nM; for `CC(C)(c1ccc(-c2cnc(NC3CCN(S(C)(=O)=O)CC3)nc2)cc1)c1cc(Cl)c(OCCCl)c(C#N)c1` [Compound A151] it is > 2000 nM.
With `CC(C)(c1ccc(OCc2ccnc(NS(C)(=O)=O)n2)cc1)c1cc(Cl)c(N2CCCC(F)(F)C2)c(C#N)c1` [Compound A152], the IC50 was in the range of 500 to 2000 nM.
Take `CC(C)(c1ccc(OCc2ccnc(NS(C)(=O)=O)n2)cc1)c1cc(Cl)c(N2CCC(F)CC2)c(C#N)c1` [Compound A153]: the 50% inhibitory concentration (IC50) was > 2000 nM.
The figure for `CS(=O)(=O)Nc1cnc2cc(-c3ccc(Oc4cc(F)c(OC5CC5)c(C#N)c4)cc3)ccc2n1` [Compound A154] is 500 to 2000 nM; for `CS(=O)(=O)Nc1cnc2cc(-c3ccc(Oc4cc(F)c(OCCCl)c(C#N)c4)cc3)ccc2n1` [Compound A155] it is 500 to 2000 nM.
For the molecule `CC(C)(c1ccc(OCc2ccnc(NS(C)(=O)=O)n2)cc1)c1cc(Cl)c(CN2CCOCC2)c(Cl)c1` [Compound A159], the IC50 is > 2000 nM.
Take `CC(C)(c1ccc(OCc2ccnc(NS(C)(=O)=O)n2)cc1)c1cc(Cl)c(CN2CCCC(F)(F)C2)c(Cl)c1` [Compound A160]: the IC50 was > 2000 nM.
Consider `CC1(O)CN(Cc2c(Cl)cc(C(C)(C)c3ccc(OCc4ccnc(NS(C)(=O)=O)n4)cc3)cc2Cl)C1` [Compound A161], for which the IC50 was > 2000 nM.
Under `CN(c1ccc(OCc2ccnc(NS(C)(=O)=O)n2)cc1)c1cc(Cl)c(OCCCl)c(C#N)c1` [Compound A162] stands 500 to 2000 nM; under `CC(C)(c1ccc(OCc2ccnc(NS(C)(=O)=O)n2)cc1)c1cc(Cl)c(OC2CN(CC(F)(F)F)C2)c(C#N)c1` [Compound A165], > 2000 nM; under `CC(C)(c1ccc(OCc2ccnc(NS(C)(=O)=O)n2)cc1)c1cc(Cl)c(CN2CC(F)(F)C2)c(Cl)c1` [Compound A166], 500 to 2000 nM.
Under `COC1CN(c2c(Cl)cc(C(C)(C)c3ccc(OCc4ccnc(NS(C)(=O)=O)n4)cc3)cc2C#N)C1` [Compound A167] stands > 2000 nM; under `CC(C)(c1ccc(OCc2ccnc(NS(C)(=O)=O)n2)cc1)c1cc(Cl)c(CCN2CC(F)(F)C2)c(C#N)c1` [Compound A168], > 2000 nM; under `CC(C)(c1ccc(OCc2ccnc(NS(C)(=O)=O)n2)cc1)c1cc(Cl)c(CCN2CC(O)C2)c(C#N)c1` [Compound A169], > 2000 nM.
Consider `CC(C)(c1ccc(OCc2ccnc(NS(C)(=O)=O)n2)cc1)c1cnc(OCCCl)c(C#N)c1` [Compound A170], for which the IC50 was > 2000 nM.
The figure for `CN(c1ccc(OCc2ccnc(NS(C)(=O)=O)n2)cc1)c1cc(C#N)c(OCCCl)cn1` [Compound A171] is > 2000 nM; for `CCCOc1c(Cl)cc(C(C)(C)c2ccc(OCc3ccnc(NS(C)(=O)=O)n3)cc2)cc1C#N` [Compound A178] it is < 500 nM.
Under `C=Cc1c(Cl)cc(C(C)(C)c2ccc(OCc3ccnc(NS(C)(=O)=O)n3)cc2)cc1C#N` [Compound A179] stands 500 to 2000 nM; under `CC(C)(c1ccc(OCc2ccnc(NS(C)(=O)=O)n2)cc1)c1cc(Cl)c(OCCN2C(=O)CCCC2=O)c(C#N)c1` [Compound A180], > 2000 nM.
The figure for `CC(C)(c1ccc(OCc2ccnc(NS(C)(=O)=O)n2)cc1)c1cc(Cl)c(OCc2cnccn2)c(C#N)c1` [Compound A181] is > 2000 nM; for `CC(C)(c1ccc(OCc2ccnc(NS(C)(=O)=O)n2)cc1)c1cc(Cl)c(OCc2ccccc2)c(C#N)c1` [Compound A182] it is 500 to 2000 nM.
